The values below come from patent publication US9382197B2, “Substituted hydroxamic acids and uses thereof” (Millennium Pharmaceuticals, Inc., priority 2010, dated 2016).

What is called IC50 is the concentration at which inhibition is half-maximal. Higher therefore signals lower potency.

One experiment concerns the target T1, purified human HDAC6 (Homo sapiens, UniProt Q9UBN7).
T1 construct: purchased BPS Bioscience 5006
T1 sequence (Q9UBN7 1-1215): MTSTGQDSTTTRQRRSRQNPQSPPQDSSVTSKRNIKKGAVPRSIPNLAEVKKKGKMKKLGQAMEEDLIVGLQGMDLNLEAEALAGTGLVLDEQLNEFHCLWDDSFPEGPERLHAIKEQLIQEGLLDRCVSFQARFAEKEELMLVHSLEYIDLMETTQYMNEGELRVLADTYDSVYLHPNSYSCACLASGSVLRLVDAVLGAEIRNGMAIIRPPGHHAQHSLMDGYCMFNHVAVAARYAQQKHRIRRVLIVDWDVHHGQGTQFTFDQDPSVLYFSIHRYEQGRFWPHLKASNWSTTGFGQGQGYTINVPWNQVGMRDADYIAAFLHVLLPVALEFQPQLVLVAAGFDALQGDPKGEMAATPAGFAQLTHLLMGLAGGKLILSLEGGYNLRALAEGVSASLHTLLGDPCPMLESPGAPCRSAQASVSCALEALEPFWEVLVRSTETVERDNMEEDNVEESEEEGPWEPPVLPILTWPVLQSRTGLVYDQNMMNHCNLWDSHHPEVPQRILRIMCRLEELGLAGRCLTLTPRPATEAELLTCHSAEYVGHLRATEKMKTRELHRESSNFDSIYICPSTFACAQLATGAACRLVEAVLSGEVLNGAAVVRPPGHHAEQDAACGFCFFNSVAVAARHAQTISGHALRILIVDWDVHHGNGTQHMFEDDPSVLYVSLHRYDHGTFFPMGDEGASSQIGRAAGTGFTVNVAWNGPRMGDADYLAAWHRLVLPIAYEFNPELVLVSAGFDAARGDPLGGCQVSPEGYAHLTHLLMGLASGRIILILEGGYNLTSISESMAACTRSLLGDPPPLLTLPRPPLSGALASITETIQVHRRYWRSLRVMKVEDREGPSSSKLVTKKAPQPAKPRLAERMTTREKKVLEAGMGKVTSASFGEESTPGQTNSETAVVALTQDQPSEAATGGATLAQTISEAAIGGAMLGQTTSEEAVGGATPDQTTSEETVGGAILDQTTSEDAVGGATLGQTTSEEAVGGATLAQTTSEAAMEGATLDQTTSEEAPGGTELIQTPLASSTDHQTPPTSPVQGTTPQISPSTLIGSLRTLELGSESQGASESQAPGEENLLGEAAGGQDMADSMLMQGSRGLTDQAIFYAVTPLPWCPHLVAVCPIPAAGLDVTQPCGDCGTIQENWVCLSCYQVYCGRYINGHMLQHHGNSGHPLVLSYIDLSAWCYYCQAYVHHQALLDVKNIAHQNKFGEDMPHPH
Kind of experiment: HDAC6 Enzyme Assay. It is filed as biochemical. The settings on record: bin: greater than 500 nM and less than 1 μM (lower bound in nM, upper bound in μM). The method, boiled down:
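Deacetylated product quantified after trypsin digestion as released AMC (340/460 nm), following a 1 h, 30 °C reaction of human HDAC6 with Ac-RGK(Ac)-AMC peptide, quenched by trichostatin A. IC50 derived from DMSO-normalized curves.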
`CC(NC(=O)c1cccc(S(C)(=O)=O)c1)c1cccc(C(=O)NO)c1` (centres unmarked) [Compound I-199, N-(1-{3-[(hydroxyamino)carbonyl]phenyl}ethyl)-3-(methylsulfonyl)benzamide] gave an IC50 of 500 to 1000 nM. The compound `CC(NC(=O)c1ccc(C(F)(F)F)cc1)c1cccc(C(=O)NO)c1` (centres unmarked) [Compound I-151, N-hydroxy-3-(1-{[4-(trifluoromethyl)benzoyl]amino}ethyl)benzamide] displayed a concentration for half-maximal inhibition (IC50) of 500 to 1000 nM. The same measure, in the same setting: the same measure for `CCc1cc(C(=O)NC(C)c2cccc(C(=O)NO)c2)n(C)n1` (centres unmarked) [Compound I-216, 3-ethyl-N-(1-{3-[(hydroxyamino)carbonyl]phenyl}ethyl)-1-methyl-1H-pyrazole-5-carboxamide]: 500 to 1000 nM; for `CC(C)(C)C(NC(=O)c1cc(F)cc(F)c1)c1ccc(C(=O)NO)cc1` (centres unmarked) [Compound I-251, 3,5-difluoro-N-(1-{4-[(hydroxyamino)carbonyl]phenyl}-2,2-dimethylpropyl)benzamide]: 500 to 1000 nM.

Staying with this experiment, now noted: bin: greater than 1 μM.
`COc1cc(C(=O)NO)ccc1C(C)NC(=O)c1cccn1C` (centres unmarked) [Compound I-481, N-(1-{4-[(hydroxyamino)carbonyl]-2-methoxyphenyl}ethyl)-1-methyl-1H-pyrrole-2-carboxamide]: the IC50 was more than 1000 nM.

Compound `CC(NC(=O)CC12CC3CC(CC(C3)C1)C2)c1ccc(C(=O)NO)cc1` (centres unmarked) [Compound I-212] returned an IC50 of more than 1000 nM. Still for that read-out and setting: with `Cn1c(C(=O)NC(c2ccc(C(=O)NO)cc2)C(C)(C)C)cc2oc(-c3ccccc3)cc21` (centres unmarked) [Compound I-392, N-(1-{4-[(hydroxyamino)carbonyl]phenyl}-2,2-dimethylpropyl)-4-methyl-2-phenyl-4H-furo[3,2-b]pyrrole-5-carboxamide] the figure was more than 1000 nM; with `Cc1nn(C)cc1C(=O)NC(C)c1cccc(C(=O)NO)c1` (centres unmarked) [Compound I-167, N-(1-{3-[(hydroxyamino)carbonyl]phenyl}ethyl)-1,3-dimethyl-1H-pyrazole-4-carboxamide], more than 1000 nM.

The experiment is the same for the next values; noted with them: purified human HDAC6, substrate Ac-Arg-Gly-Lys(Ac)-AMC, 1 hour at 30° C.; reported as bins.
Regarding `CC(NC(=O)NCCc1ccccc1)c1ccc(C(=O)NO)cc1` (centres unmarked) [Compound I-210, N-hydroxy-4-[1-({[(2-phenylethyl)amino]carbonyl}amino)ethyl]benzamide], the IC50 is less than 100 nM. Consider `CC(C)C(NC(=O)C1CCCCC1)c1ccc(C(=O)NO)cc1` (centres unmarked) [Compound I-344, 4-{1-[(cyclohexylcarbonyl)amino]-2-methylpropyl}-N-hydroxybenzamide], for which the IC50 fell in the range of 100 to 500 nM. In turn, `CC(C)C(NC(=O)C1(c2ccc(Cl)cc2)CC1)c1ccc(C(=O)NO)cc1` (centres unmarked) [Compound I-300, 4-[1-({[1-(4-chlorophenyl)cyclopropyl]carbonyl}amino)-2-methylpropyl]-N-hydroxybenzamide] gave an IC50 of 100 to 500 nM.

Compound `CC(C)(C)NC(=O)N[C@H](c1ccc(C(=O)NO)cc1)C(F)(F)F` [Compound I-290, 4-((1R)-1-{[(tert-butylamino)carbonyl]amino}-2,2,2-trifluoroethyl)-N-hydroxybenzamide] yielded an IC50 of 100 to 500 nM. On the same count and under the same terms, the same measure for `C[C@@H](NC(=O)N[C@H](C)c1ccc(C(=O)NO)cc1)c1ccccc1` [Compound I-517, N-hydroxy-4-[(1R)-1-({[(1R)-1-phenylethyl]carbamoyl}amino)ethyl]benzamide]: 100 to 500 nM; for `O=C(NO)c1ccc([C@@H](NC(=O)c2cc3ccccc3s2)c2ccccc2)cc1` [Compound I-124, N-[(S)-{4-[(hydroxyamino)carbonyl]phenyl}(phenyl)methyl]-1-benzothiophene-2-carboxamide]: less than 100 nM. `CC(NC(=O)Nc1ccccc1Oc1ccccc1)c1ccc(C(=O)NO)cc1` (centres unmarked) [Compound I-31, N-hydroxy-4-[1-({[(2-phenoxyphenyl)amino]carbonyl}amino)ethyl]benzamide] showed an IC50 of less than 100 nM. For the compound `CC(NC(=O)c1c[nH]c2ccccc12)c1cccc(C(=O)NO)c1` (centres unmarked) [Compound I-10, N-(1-{3-[(hydroxyamino)carbonyl]phenyl}ethyl)-1H-indole-3-carboxamide], the IC50 was 100 to 500 nM. Take `COc1cc(C(=O)NC(C)c2ccc(C(=O)NO)cc2)ccc1F` (centres unmarked) [Compound I-164, 4-fluoro-N-(1-{4-[(hydroxyamino)carbonyl]phenyl}ethyl)-3-methoxybenzamide]: the IC50 was less than 100 nM. On the same count and under the same terms, the same measure for `C[C@@H](NC(=O)c1cc2ccccc2s1)c1ccc(C(=O)NO)cc1` [Compound I-184, N-((1R)-1-{4-[(hydroxyamino)carbonyl]phenyl}ethyl)-1-benzothiophene-2-carboxamide]: less than 100 nM; for `CC(NC(=O)c1cccn1C)c1ccc(C(=O)NO)cc1` (centres unmarked) [Compound I-356, N-(1-{4-[(hydroxyamino)carbonyl]phenyl}ethyl)-1-methyl-1H-pyrrole-2-carboxamide]: less than 100 nM; for `CC(C)(C)C(NC(=O)c1cc2ccccc2s1)c1ccc(C(=O)NO)cc1` (centres unmarked) [Compound I-308, N-(1-{4-[(hydroxyamino)carbonyl]phenyl}-2,2-dimethylpropyl)-1-benzothiophene-2-carboxamide]: less than 100 nM. Take `CC(C)[C@@H](NC(=O)NC12CC3CC(CC(C3)C1)C2)c1ccc(C(=O)NO)cc1` [Compound I-354, 4-[(1R)-1-({[1-adamantylamino]carbonyl}amino)-2-methylpropyl]-N-hydroxybenzamide]: the IC50 is less than 100 nM. In turn, `CC(C)[C@@H](NC(=O)c1cc2ccccc2[nH]1)c1ccc(C(=O)NO)cc1` [Compound I-68, N-((1R)-1-{4-[(hydroxyamino)carbonyl]phenyl}-2-methylpropyl)-1H-indole-2-carboxamide] returned an IC50 of less than 100 nM. Same read-out and setting: with `C[C@@H](NC(=O)c1cc2ccccc2s1)c1cccc(C(=O)NO)c1` [Compound I-321, N-((1R)-1-{3-[(hydroxyamino)carbonyl]phenyl}ethyl)-1-benzothiophene-2-carboxamide] the figure was less than 100 nM; with `Cc1nc(C(=O)NC(C)c2ccc(C(=O)NO)cc2)cs1` (centres unmarked) [Compound I-278, N-(1-{4-[(hydroxyamino)carbonyl]phenyl}ethyl)-2-methyl-1,3-thiazole-4-carboxamide], less than 100 nM; with `CC(NC(=O)NC1CCCCC1)c1ccc(C(=O)NO)cc1` (centres unmarked) [Compound I-395, 4-(1-{[(cyclohexylamino)carbonyl]amino}ethyl)-N-hydroxybenzamide], 100 to 500 nM. On the same count and under the same terms, with `C[C@@H](NC(=O)c1cc2oc(-c3ccccc3)cc2n1C)c1ccc(C(=O)NO)cc1` [Compound I-5, N-((1R)-1-{4-[(hydroxyamino)carbonyl]phenyl}ethyl)-4-methyl-2-phenyl-4H-furo[3,2-b]pyrrole-5-carboxamide] the figure was less than 100 nM. On the same count and under the same terms, the same measure for `CC(NC(=O)Nc1ccc(F)c(F)c1)c1ccc(C(=O)NO)cc1` (centres unmarked) [Compound I-275, 4-[1-({[(3,4-difluorophenyl)amino]carbonyl}amino)ethyl]-N-hydroxybenzamide]: less than 100 nM. For the compound `CC(C)[C@@H](NC(=O)Nc1ccc2c(c1)CCO2)c1ccc(C(=O)NO)cc1` [Compound I-526, 4-((1R)-1-{[(2,3-dihydro-1-benzofuran-5-ylamino)carbonyl]amino}-2-methylpropyl)-N-hydroxybenzamide], the IC50 is less than 100 nM.

`C[C@@H](NC(=O)c1ccc(-c2ccccc2)cc1)c1cccc(C(=O)NO)c1` [Compound I-121, N-((1R)-1-{3-[(hydroxyamino)carbonyl]phenyl}ethyl)biphenyl-4-carboxamide] gave an IC50 of 100 to 500 nM.

On to `O=C(NO)c1ccc([C@H](NC(=O)C23CC4CC(CC(C4)C2)C3)c2ccccc2)cc1` [Compound I-336, N-[(R)-{4-[(hydroxyamino)carbonyl]phenyl}(phenyl)methyl]adamantane-1-carboxamide], for which the IC50 was 100 to 500 nM. In the case of `CC(C)C(NC(=O)c1cc(F)c(F)cc1F)c1ccc(C(=O)NO)cc1` (centres unmarked) [Compound I-116, 2,4,5-trifluoro-N-(1-{4-[(hydroxyamino)carbonyl]phenyl}-2-methylpropyl)benzamide], the IC50 is less than 100 nM. Regarding `CC(NC(=O)Nc1ccc(C#N)cc1)c1ccc(C(=O)NO)cc1` (centres unmarked) [Compound I-236, 4-[1-({[(4-cyanophenyl)amino]carbonyl}amino)ethyl]-N-hydroxybenzamide], the IC50 is less than 100 nM.
